# Species on record: Rattus norvegicus
# Assay: Open TG-GATES - Regimen: Single
# Type: toxicity, organism-based, Sprague-Dawley
# Design: regimen Single, gender Male, age 6 weeks
# Conditions: in vivo, po, route gavage; for gamma-GTP / ALT / AST / BUN / CRE / Ca / Cl / DBIL / GLC / IP / K / LDH / Na / PL / RALB / TBIL / TC / TP: tissue Plasma; for Bas / Eos / Fbg / Hb / Ht / Lym / MCHC / MCV / Mono / Neu / Plat / RBC / Ret / WBC: tissue Blood; for KIDNEY_TOTAL: tissue Kidney; for LIVER: tissue Liver
# [1] = 50 mg/kg, 24 h, dose level High
smiles,measurement,setting,value
C[C@@H]1C[C@H]2[C@@H]3CCC4=CC(=O)C=C[C@]4(C)[C@@]3(F)[C@@H](O)C[C@]2(C)[C@@]1(O)C(=O)CO [DEXAMETHASONE],gamma-GTP,"5 mg/kg, 24 h, dose level Middle",0 IU/L
same,TERMINAL_BW,"50 mg/kg, 3 h, dose level High",214.6 g
same,Bas,"50 mg/kg, 3 h, dose level High",0%
same,Eos,"50 mg/kg, 3 h, dose level High",0.8%
same,Fbg,"50 mg/kg, 3 h, dose level High",244.4 mg/dL
same,Hb,"50 mg/kg, 3 h, dose level High",13.1 g/dL
same,Ht,"50 mg/kg, 3 h, dose level High",40.1%
same,Lym,"50 mg/kg, 3 h, dose level High",58%
same,MCHC,"50 mg/kg, 3 h, dose level High",32.5%
same,MCV,"50 mg/kg, 3 h, dose level High",63.1 fL
same,Mono,"50 mg/kg, 3 h, dose level High",2.8%
same,Neu,"50 mg/kg, 3 h, dose level High",38.8%
same,Plat,"50 mg/kg, 3 h, dose level High",125.2 x10_4/uL
same,RBC,"50 mg/kg, 3 h, dose level High",635.6 x10_4/ul
same,Ret,"50 mg/kg, 3 h, dose level High",7.4%
same,WBC,"50 mg/kg, 3 h, dose level High",35.1 x10_2/uL
same,KIDNEY_TOTAL,"50 mg/kg, 3 h, dose level High",0.6 g
same,LIVER,"50 mg/kg, 3 h, dose level High",10.7 g
same,ALT,"50 mg/kg, 3 h, dose level High",40.4 IU/L
same,AST,"50 mg/kg, 3 h, dose level High",75.2 IU/L
same,BUN,"50 mg/kg, 3 h, dose level High",15.6 mg/dL
same,CRE,"50 mg/kg, 3 h, dose level High",0.4 mg/dL
same,Ca,"50 mg/kg, 3 h, dose level High",11.3 mg/dL
same,Cl,"50 mg/kg, 3 h, dose level High",103.2 meq/L
same,DBIL,"50 mg/kg, 3 h, dose level High",0.012 mg/dL
same,GLC,"50 mg/kg, 3 h, dose level High",198.8 mg/dL
same,IP,"50 mg/kg, 3 h, dose level High",11.5 mg/dL
same,K,"50 mg/kg, 3 h, dose level High",3.9 meq/L
same,LDH,"50 mg/kg, 3 h, dose level High",85.4 IU/L
same,Na,"50 mg/kg, 3 h, dose level High",142 meq/L
same,PL,"50 mg/kg, 3 h, dose level High",152.8 mg/dL
same,RALB,"50 mg/kg, 3 h, dose level High",4.3 g/dL
same,TBIL,"50 mg/kg, 3 h, dose level High",0.04 mg/dL
same,TC,"50 mg/kg, 3 h, dose level High",91 mg/dL
same,TP,"50 mg/kg, 3 h, dose level High",6.1 g/dL
same,gamma-GTP,"50 mg/kg, 3 h, dose level High",1 IU/L
same,TERMINAL_BW,"50 mg/kg, 6 h, dose level High",208.4 g
same,Bas,"50 mg/kg, 6 h, dose level High",0%
same,Eos,"50 mg/kg, 6 h, dose level High",0%
same,Fbg,"50 mg/kg, 6 h, dose level High",244.4 mg/dL
same,Hb,"50 mg/kg, 6 h, dose level High",13.3 g/dL
same,Ht,"50 mg/kg, 6 h, dose level High",40.4%
same,Lym,"50 mg/kg, 6 h, dose level High",61.8%
same,MCHC,"50 mg/kg, 6 h, dose level High",32.9%
same,MCV,"50 mg/kg, 6 h, dose level High",63.8 fL
same,Mono,"50 mg/kg, 6 h, dose level High",3.4%
same,Neu,"50 mg/kg, 6 h, dose level High",34.4%
same,Plat,"50 mg/kg, 6 h, dose level High",119.3 x10_4/uL
same,RBC,"50 mg/kg, 6 h, dose level High",634 x10_4/ul
same,Ret,"50 mg/kg, 6 h, dose level High",7.1%
same,WBC,"50 mg/kg, 6 h, dose level High",26.8 x10_2/uL
same,KIDNEY_TOTAL,"50 mg/kg, 6 h, dose level High",0.5 g
same,LIVER,"50 mg/kg, 6 h, dose level High",10.5 g
same,ALT,"50 mg/kg, 6 h, dose level High",40.8 IU/L
same,AST,"50 mg/kg, 6 h, dose level High",83 IU/L
same,BUN,"50 mg/kg, 6 h, dose level High",16.2 mg/dL
same,CRE,"50 mg/kg, 6 h, dose level High",0.4 mg/dL
same,Ca,"50 mg/kg, 6 h, dose level High",11.4 mg/dL
same,Cl,"50 mg/kg, 6 h, dose level High",104.6 meq/L
same,DBIL,"50 mg/kg, 6 h, dose level High",0.01 mg/dL
same,GLC,"50 mg/kg, 6 h, dose level High",215.2 mg/dL
same,IP,"50 mg/kg, 6 h, dose level High",8.1 mg/dL
same,K,"50 mg/kg, 6 h, dose level High",4.1 meq/L
same,LDH,"50 mg/kg, 6 h, dose level High",80.6 IU/L
same,Na,"50 mg/kg, 6 h, dose level High",140.2 meq/L
same,PL,"50 mg/kg, 6 h, dose level High",157.6 mg/dL
same,RALB,"50 mg/kg, 6 h, dose level High",4.6 g/dL
same,TBIL,"50 mg/kg, 6 h, dose level High",0.036 mg/dL
same,TC,"50 mg/kg, 6 h, dose level High",106.4 mg/dL
same,TP,"50 mg/kg, 6 h, dose level High",6.5 g/dL
same,gamma-GTP,"50 mg/kg, 6 h, dose level High",0 IU/L
same,TERMINAL_BW,"50 mg/kg, 9 h, dose level High",200.5 g
same,Bas,"50 mg/kg, 9 h, dose level High",0%
same,Eos,"50 mg/kg, 9 h, dose level High",0%
same,Fbg,"50 mg/kg, 9 h, dose level High",244.6 mg/dL
same,Hb,"50 mg/kg, 9 h, dose level High",13.5 g/dL
same,Ht,"50 mg/kg, 9 h, dose level High",41%
same,Lym,"50 mg/kg, 9 h, dose level High",42.8%
same,MCHC,"50 mg/kg, 9 h, dose level High",32.9%
same,MCV,"50 mg/kg, 9 h, dose level High",64.5 fL
same,Mono,"50 mg/kg, 9 h, dose level High",2%
same,Neu,"50 mg/kg, 9 h, dose level High",55.2%
same,Plat,"50 mg/kg, 9 h, dose level High",121.9 x10_4/uL
same,RBC,"50 mg/kg, 9 h, dose level High",636.2 x10_4/ul
same,Ret,"50 mg/kg, 9 h, dose level High",5.4%
same,WBC,"50 mg/kg, 9 h, dose level High",15.4 x10_2/uL
same,KIDNEY_TOTAL,"50 mg/kg, 9 h, dose level High",0.5 g
same,LIVER,"50 mg/kg, 9 h, dose level High",10.8 g
same,ALT,"50 mg/kg, 9 h, dose level High",39 IU/L
same,AST,"50 mg/kg, 9 h, dose level High",78.2 IU/L
same,BUN,"50 mg/kg, 9 h, dose level High",18.2 mg/dL
same,CRE,"50 mg/kg, 9 h, dose level High",0.4 mg/dL
same,Ca,"50 mg/kg, 9 h, dose level High",10.6 mg/dL
same,Cl,"50 mg/kg, 9 h, dose level High",103.2 meq/L
same,DBIL,"50 mg/kg, 9 h, dose level High",0.01 mg/dL
same,GLC,"50 mg/kg, 9 h, dose level High",238.8 mg/dL
same,IP,"50 mg/kg, 9 h, dose level High",6.6 mg/dL
same,K,"50 mg/kg, 9 h, dose level High",4.2 meq/L
same,LDH,"50 mg/kg, 9 h, dose level High",83.4 IU/L
same,Na,"50 mg/kg, 9 h, dose level High",138 meq/L
same,PL,"50 mg/kg, 9 h, dose level High",177.6 mg/dL
same,RALB,"50 mg/kg, 9 h, dose level High",4.6 g/dL
same,TBIL,"50 mg/kg, 9 h, dose level High",0.032 mg/dL
same,TC,"50 mg/kg, 9 h, dose level High",105.6 mg/dL
same,TP,"50 mg/kg, 9 h, dose level High",6.5 g/dL
same,gamma-GTP,"50 mg/kg, 9 h, dose level High",0.8 IU/L
same,TERMINAL_BW,[1],218.5 g
same,Bas,[1],0%
same,Eos,[1],1.2%
same,Fbg,[1],231 mg/dL
same,Hb,[1],13.8 g/dL
same,Ht,[1],42.2%
same,Lym,[1],13.8%
same,MCHC,[1],32.8%
same,MCV,[1],63.1 fL
same,Mono,[1],7.2%
same,Neu,[1],78.4%
same,Plat,[1],129.6 x10_4/uL
same,RBC,[1],667.6 x10_4/ul
same,Ret,[1],4.6%
same,WBC,[1],26.2 x10_2/uL
same,KIDNEY_TOTAL,[1],0.3 g
same,LIVER,[1],14.3 g
same,ALT,[1],52.8 IU/L
same,AST,[1],102.2 IU/L
same,BUN,[1],19.2 mg/dL
same,CRE,[1],0.5 mg/dL
same,Ca,[1],11.2 mg/dL
same,Cl,[1],99.8 meq/L
same,DBIL,[1],0.018 mg/dL
same,GLC,[1],273.2 mg/dL
same,IP,[1],6.7 mg/dL
same,K,[1],4.6 meq/L
same,Na,[1],138.8 meq/L
same,PL,[1],260.8 mg/dL
same,RALB,[1],4.6 g/dL
same,TBIL,[1],0.042 mg/dL
same,TC,[1],120.4 mg/dL
same,TP,[1],6.5 g/dL
same,gamma-GTP,[1],0.4 IU/L

# Reference: ChEMBL document CHEMBL3885861, “Open TG-GATES”
